Among the data in ChEMBL document CHEMBL1127095, “Pharmacology of (2R, 4R, 5S)-2-amino-4,5-(1,2-cyclohexyl)-7-phosphonoheptanoic acid (NPC 17742); a selective, systemically active, competitive NMDA antagonist” (Bioorg Med Chem Lett, 1993) are LD50, ED50 and IC50 values, retold here.

The structures appear in SMILES notation. Some results are limits rather than exact numbers.

The nature of series [1]: Tested for the lethal dose by intraperitoneal administration. The class given is ADME. The note with it: mouse, ip.
For series [2], the system named is Mus musculus. Put plainly: Tested for the ability to inhibit the […] induced seizures (ip administration). The class given is functional.
The species named for series [3] is Mus musculus. In words: Tested for the ability to inhibit the maximal electroshock induced seizures in mice. The class given is functional. (Protection in the maximal electroshock model is a classic sign of anticonvulsant action.)
For series [4], the system named is Mus musculus. Put plainly: Tested for the ability to inhibit the NMDA induced (250mg/Kg, intraperitoneally) seizures in male CF-1 mice given 15 min prior to NMDA (intracerebroventricularly). The class given is functional.
For series [5], the species on record is Mus musculus. In words: Tested for the ability to inhibit the pentylenetetrazole seizures in mice. The class given is functional.
Series [6] relates to Rattus norvegicus. In words: Tested for the paradigm of drug-discrimination assay in rat by intraperitoneal administration. The class given is functional. The note with it: ip.
Series [7] concerns Rattus norvegicus. In words: Tested for the paradigm of drug-discrimination assay (NPC 17742 (4 mg/Kg; i.p.) from saline) in rat by intraperitoneal administration. The class given is functional. The note with it: ip.
For series [8], the target named is Glutamate NMDA receptor. Put plainly: Tested for the ability to inhibit the specific binding of [3H]-CGS- 19755 to NMDA recognition sites on rat brain membranes. The class given is cell membranes, Membrane.
Series [9] deals with Mus musculus. Put plainly: Tested for the ability to inhibit the NMDA induced (250mg/Kg, intraperitoneal) seizures in male CF-1 mice when given 30 min prior to NMDA (intraperitoneal). The class given is functional. The conditions noted are these: ip.
The test system of series [10] is Rattus norvegicus. In words: Tested for the paradigm of drug-discrimination assay in rats by intraperitoneal administration. The class given is functional. The conditions noted are these: ip.
The subject of series [11] is Rattus norvegicus. In words: Tested for the paradigm of drug-discrimination assay (NPC 17742 (4 mg/Kg) from saline) in rats by intraperitoneal administration. The class given is functional. The conditions noted are these: ip.
The subject of series [12] is Rattus norvegicus. In words: Tested for the paradigm of drug-discrimination assay in rats by intraperitoneal administration. The class given is functional. The conditions noted are these: ip.
Series [13] concerns Rodentia sp. In words: Tested for the ability to inhibit the cocaine-induced seizures in rodents. The class given is functional.

As to `N[C@H](C[C@H]1CCCCC1CCP(=O)(O)O)C(=O)O` (single isomer, unassigned), in series [1], the LD50 – broadly, the dose expected to kill half of the subjects tested – was above 1000 mg/kg. Besides, the ED50 in series [2] was 4.5 mg/kg; in series [3], 13 mg/kg; in series [4], 0.28 nmol; in [5], 4.5 mg/kg; in series [6] it was 2.1 mg/kg; in [7], 1.9 mg/kg. The same compound came in with an ED50 in [9] of 1.05 mg/kg. Also, in [8], the concentration for half-maximal inhibition (IC50) (commonly the concentration at which inhibition is half-maximal) stood at 270 nM.

As for `O=C(O)[C@@H]1C[C@H](CP(=O)(O)O)CCN1` (single isomer, unassigned) [SELFOTEL], the ED50 in [10] was found to be 2.3 mg/kg; in series [4], 0.19 nmol; in [9] it was 2.6 mg/kg. Also, the 50% inhibitory concentration (IC50) in [8] was 87 nM.

As for `NC(CC1CCCCC1CCP(=O)(O)O)C(=O)O` (stereo not given), the results for the ED50 in series [11] and in series [12] were 8.9 mg/kg and 18.1 mg/kg, respectively.

Turning to `CC(=CC(N)C(=O)O)CP(=O)(O)O` (stereo not given) [CGP-37849], the ED50 in [13] was 0.1 mg/kg; in [12], 0.8 mg/kg.

As for `N[C@H](C[C@@H]1CCCC[C@@H]1CCP(=O)(O)O)C(=O)O`, the results for the ED50 in series [4] and in series [9] were 8.5 nmol and 33 mg/kg, respectively. This compound showed a 50% inhibitory concentration (IC50) in [8] of 5600 nM.

For `NC(C[C@@H]1CCCC[C@H]1CCP(=O)(O)O)C(=O)O` (stereo in doubt; (+)), in series [4], the ED50 was determined as 49 nmol. Moreover, the IC50 in series [8] is 28000 nM.

Consider `N[C@@H](C[C@H]1CCCC[C@H]1CCP(=O)(O)O)C(=O)O`, for which the ED50 in series [4] was 44.6 nmol; in series [9], 40 mg/kg. The IC50 in series [8] was 2600 nM.

In the case of `O=C(O)[C@H]1CN(C/C=C/P(=O)(O)O)CCN1` [MIDAFOTEL], the ED50 in [12] was 0.8 mg/kg.

Turning to `N[C@@H](C[C@@H]1CCCC[C@@H]1CCP(=O)(O)O)C(=O)O`, the ED50 is 8.5 nmol in series [4] and 32 mg/kg in [9]. Besides, the IC50 in [8] came to 2400 nM.

Consider `O=C(O)C1CN(CCCP(=O)(O)O)CCN1` (racemic), for which the ED50 worked out at 1.2 nmol in series [4] and 2.2 mg/kg in series [9]. This compound also returned an IC50 in series [8] of 190 nM.

Turning to `NC(C[C@@H]1CCCC[C@H]1CCP(=O)(O)O)C(=O)O` (stereo in doubt; (-)), the ED50 in series [4] was 20 nmol; in [9] it was above 100 mg/kg. The compound further yielded an IC50 in [8] of 4050 nM.
